# Results published in patent US6416746B1, “Indanylidene compounds” (Roche Vitamins Inc., priority 1998, dated 2002).
# Assays:
# [1] = Solubility in cosmetic solvents (CÉTIOL LC, CRODAMOL DA); conditions: for Solubility in CRODAMOL DA: solvent CRODAMOL DA (Diisopropyl adipate); for Solubility in CÉTIOL LC: solvent CÉTIOL LC (Coco-caprylate/caprate); for solubility in cosmetic solvents (in words): cosmetic solvents such as CÉTIOL LC and CRODAMOL DA
# [2] = Photostability at high dilution in ethanol solution under Hg lamp with Pyrex filter; assay type: physicochemical
# Protocol: A 25 ml reaction flask equipped with a distillation bridge and connected to vacuum was charged with 2 g (6.3 mmol) of cyano-(2,3-dihydro-5,6-dimethoxy-3,3-dimethyl-1H-inden-1-ylidene) acetic acid ethyl ester (see Example 1), 1.37 g (6.6 mmol) of 3-(1,1,3,3,3-pentamethy-disiloxanyl)-propanol (see above) and 3 mg of tetraisopropyl ortho titanate. The mixture was heated to 115° C. to 120° C. at a vacuum of 360 mbar with stirring for 11 hours.
compound,measurement,setting,value
"CCOC(=O)/C(C#N)=C1\CC(C)(C)c2cc(OC)c(OC)cc21 [Example 1, Cyano-(2,3-dihydro-5,6-dimethoxy-3,3-dimethyl-1H-inden-1-ylidene)acetic Acid Ethyl Ester, reference compound]",Solubility in CRODAMOL DA,[1],1.71%
same,Solubility in CÉTIOL LC,[1],0.35%
same,Solubility in CÉTIOL LC,[1]; listed as drawing 30,0.35%
"COc1cc2c(cc1OC)C(C)(C)C/C2=C(/C#N)C(=O)OCCC[Si](C)(C)O[Si](C)(C)C [Example 2, Cyano-(2,3-dihydro-5,6-dimethoxy-3,3-dimethyl-1H-inden-1-ylidene) acetic Acid-3-(1,1,3,3,3-pentamethy-disiloxanyl)-propyl Ester]",photostability,[2],excellent photostability
same,solubility in cosmetic solvents (in words),[1],excellent solubility
same,Solubility in CRODAMOL DA,[1],miscible
"COc1cc2c(cc1OC)C(C)(C)C/C2=C(/C#N)C(=O)OCC(C)C[Si](C)(C)O[Si](C)(C)C (centres unmarked) [Example 3, Cyano-(2,3-dihydro-5,6-dimethoxy-3,3-dimethyl-1H-inden-1-ylidene) acetic Acid-3-(1,1,3,3,3-pentamethy-disiloxanyl)-2-methyl-propyl Ester]",photostability,[2],same solubility and photostability qualities as described in Example 2b
same,solubility in cosmetic solvents (in words),[1],same solubility and photostability qualities as described in Example 2b
same,Solubility in CRODAMOL DA,[1],miscible
"COc1cc2c(cc1OC)C(C)(C)C/C2=C(/C#N)C(=O)OCCCC[Si](C)(O[Si](C)(C)C)O[Si](C)(C)C [Example 4, Cyano-(2,3-dihydro-5,6-dimethoxy-3,3-dimethyl-1H-inden-1-ylidene) acetic Acid-4-(1,3,3,3-tetramethyl-1-[(trimethylsilyl)-oxy]-disiloxanyl)-butyl Ester]",photostability,[2],excellent photostability
same,Solubility in CRODAMOL DA,[1],miscible
"CC[Si](CC)(CC)CCOCCCCOC(=O)/C(C#N)=C1\CC(C)(C)c2cc(OC)c(OC)cc21 [Example 5, Cyano-(2,3-dihydro-5,6-dimethoxy-3,3-dimethyl-1H-inden-1-ylidene) acetic Acid-4-(2-triethylsilanyl-ethoxy)-butyl Ester]",photostability,[2],same solubility and photostability qualities as described in Example 2b
same,solubility in cosmetic solvents (in words),[1],same solubility and photostability qualities as described in Example 2b
same,Solubility in CRODAMOL DA,[1],miscible
"CC[Si](/C=C/CCOC(=O)/C(C#N)=C1\CC(C)(C)c2cc(OC)c(OC)cc21)(CC)CC [Example 6, Cyano-(2,3-dihydro-5,6-dimethoxy-3,3-dimethyl-1H-inden-1-ylidene) acetic Acid-4-triethylsilanyl-but-3-enyl Ester]",photostability,[2],same solubility and photostability qualities as described in Example 2b
same,solubility in cosmetic solvents (in words),[1],same solubility and photostability qualities as described in Example 2b
same,Solubility in CRODAMOL DA,[1],miscible
"COc1ccc2c(c1)CC(C)/C2=C(/C#N)C(=O)OCCCC[Si](C)(C)O[Si](C)(C)C (centres unmarked) [Example 7, Cyano-(2,3-dihydro-5-methoxy-2-methyl-1H-inden-1-ylidene)acetic Acid-4-(1,1,3,3,3-pentamethy-disiloxanyl)-butyl Ester]",photostability,[2],same solubility and photostability qualities as described in Example 2b
same,solubility in cosmetic solvents (in words),[1],same solubility and photostability qualities as described in Example 2b
same,Solubility in CRODAMOL DA,[1],miscible
"C=C(CNC(=O)/C(C#N)=C1\CC(C)(C)c2cc(OC)c(OC)cc21)[Si](C)(O[Si](C)(C)C)O[Si](C)(C)C [Example 8, Cyano-(2,3-dihydro-5,6-dimethoxy-3,3-dimethyl-1H-inden-1-ylidene)acetic Acid-2-(1,3,3,3-tetramethyl-1-[(trimethylsilyl)-oxy]-disiloxanyl)-prop-2-enyl Amide]",photostability,[2],same photostability qualities as described in Example 2b
same,Solubility in CRODAMOL DA,[1],miscible
"C#CCNC(=O)/C(C#N)=C1\CC(C)(C)c2cc(OC)c(OC)cc21 [Example 8b, 2-Cyano-2-(5,6-dimethoxy-3,3-dimethyl-indan-1-ylidene)-N-prop-2-ynyl-acetamide, reference compound]",Solubility in CÉTIOL LC,[1],0.04%
same,Solubility in CÉTIOL LC,[1]; listed as drawing 33,0.04%
C=C(COc1cc2c(cc1OC)/C(=C(\C#N)C(=O)OCC)CC2(C)C)[Si](C)(O[Si](C)(C)C)O[Si](C)(C)C [Example 11],photostability,[2],same photostability qualities as described in Example 2b
same,Solubility in CRODAMOL DA,[1],miscible
"CCOC(=O)/C(C#N)=C1\CC(C)(C)c2cc(OC)ccc21 [drawing 31, reference compound]",Solubility in CRODAMOL DA,[1],0.60%
same,Solubility in CÉTIOL LC,[1],0.10%
"CCOC(=O)/C(C#N)=C1\CC(C)(C)c2cc(OC)ccc21 [drawing 32, reference compound]",Solubility in CÉTIOL LC,[1],0.09%
